Data on 16 compounds can be found in ChEMBL document CHEMBL4354862, “Peptidomimetic Vinyl Heterocyclic Inhibitors of Cruzain Effect Antitrypanosomal Activity” (J Med Chem, 2020).

The subject of one data set is NHDF. The experiment in a line: Cytotoxicity against HDF cells assessed as reduction in cell viability measured after 48 hrs by resazurin dye based fluorescence assay. The conditions noted are these: human. Background: The colour change of resazurin is a common sign of viable cells or microbes.
Data set [1] is described as follows: Solubility of the compound in 10% DMSO v/v at 1 to 200 uM measured up to 120 mins. It is filed as physicochemical. The conditions noted are these: 2 h.
Data set [2] relates to Trypanosoma cruzi. As to the kind of experiment: Antitrypanosomal activity against axenic cultures of Trypanosoma cruzi Y ATCC 50832GFP epimastigotes supplemented with fresh medium containing compound daily for 5 days by coulter counting method. Type of data set: functional, organism-based. As to conditions: 120 h.
The subject of another data set is C2C12. As to the kind of experiment: Cytotoxicity against mouse C2C12 cells assessed as reduction in cell viability measured after 48 hrs by 4',6-diamidino-2-phenylindole staining based microscopic analysis. As to conditions: c2c12, 48 h.
Data set [3] has as its target Cruzipain (Trypanosoma cruzi) (UniProt P25779). The experiment in a line: Reversible inhibition of Trypanosoma cruzi cruzain assessed as rate constant K4 using Cbz-Phe-Arg-AMC as substrate preincubated for 1 hr followed by enzyme-compound mixture dilution in presence of substrate by fluorescence assay.
A short description of data set [4]: Glutathione reactivity of the compound in 10% DMSO (v/v)/pH 8 Tris buffer assessed as GSH adduct formation by measuring rate of-thiolation at 2:1 molar ratio of GSH/inhibitor by HPLC-MS analysis. Type of data set: ADME.
Data set [5] in a line: Glutathione reactivity of the compound in 10% DMSO (v/v)/pH 8 Tris buffer assessed as GSH adduct formation by measuring retention time at 0.5 mM by HPLC-MS analysis. It is filed as ADME. The conditions noted are these: pH 8, 500 µM.
A short description of data set [6]: Glutathione reactivity of the compound in 10% DMSO (v/v)/pH 8 Tris buffer assessed as GSH adduct formation by measuring equilibrium constant measured after 90 mins by HPLC-MS analysis. Type of data set: ADME.
A short description of data set [7]: Selectivity ratio of Ki for human Cathepsin B to Ki for Trypanosoma cruzi cruzain. Type of data set: toxicity.
Data set [8] concerns Trypanosoma cruzi. The experiment in a line: Antitrypanosomal activity against Trypanosoma cruzi Ca-I/72 infected in mouse C2C12 cells measured after 48 hrs by 4',6-diamidino-2-phenylindole staining based microscopic analysis. It is filed as functional, organism-based. As to conditions: Ca-I/72, C2C12, 48 h.
A short description of data set [9]: Selectivity ratio of Ki for human Cathepsin L to Ki for Trypanosoma cruzi cruzain. It is filed as toxicity.
The nature of data set [10]: Selectivity ratio of Ki for human Cathepsin S to Ki for Trypanosoma cruzi cruzain. It is filed as toxicity.
The subject of data set [11] is Trypanosoma brucei brucei. As to the kind of experiment: Antitrypanosomal activity against Trypanosoma brucei brucei ATCC PRA-381 procyclic trypomastigotes supplemented with fresh medium containing compound daily for 4 days by coulter counting method. The conditions noted are these: ATCC PRA-381, 96 h. Type of data set: functional, organism-based.
The nature of data set [12]: Selectivity index, ratio of CC50 for HDF cells to EC50 for Trypanosoma cruzi Ca-I/72 infected in mouse C2C12 cells. The conditions noted are these: read-out: Ratio CC50/EC50. Type of data set: toxicity, cell-based.
Data set [13] deals with Trypanosoma brucei brucei. As to the kind of experiment: Antitrypanosomal activity against Trypanosoma brucei brucei ATCC PRA-383 bloodstream forms supplemented with fresh medium containing compound daily for 4 days by coulter counting method. The conditions noted are these: ATCC PRA-383, 96 h.
Data set [14] relates to Trypanosoma cruzi. The experiment in a line: Potency index, ratio of K11777 IC50 to test compound IC50 for axenic cultures of Trypanosoma cruzi Y ATCC 50832GFP epimastigotes. Type of data set: functional.
Data set [15] addresses T1, Cruzipain (Trypanosoma cruzi, UniProt P25779). The experiment in a line: Inhibition of Trypanosoma cruzi cruzain assessed as rate constant for enzyme-inhibitor complex using Cbz-Phe-Arg-AMC as substrate and measured up to 40 mins by fluorescence assay. The conditions noted are these: read-out: Ki(app).
Data set [16] has as its target Cruzipain (Trypanosoma cruzi) (UniProt P25779). The experiment in a line: Irreversible inhibition of Trypanosoma cruzi cruzain assessed as ratio of Kinact to Ki using Cbz-Phe-Arg-AMC as substrate by fluorescence assay.
The nature of data set [17]: Glutathione reactivity of the compound in 10% DMSO (v/v)/pH 8 Tris buffer assessed as GSH adduct formation by measuring rate of-thiolation at 0.5 mM by HPLC-MS analysis. Type of data set: ADME. The conditions noted are these: pH 8, 500 µM.
In data set [18] the test system is Trypanosoma cruzi. The experiment in a line: Antitrypanosomal activity against Trypanosoma cruzi Brazil epimastigotes measured after 48 hrs by [3H]thymidine incorporation based beta-counting method. It is filed as functional, organism-based. A general note: Uptake of a labelled nucleoside into DNA is a usual measure of proliferation.
A further data set addresses Cathepsin B (Homo sapiens, UniProt P07858). As to the kind of experiment: Inhibition of human Cathepsin B assessed as rate constant for enzyme-inhibitor-substrate complex using Cbz-Phe-Arg-AMC as substrate measured up to 40 mins by fluorescence assay.
Data set [19] addresses T1, Cruzipain. As to the kind of experiment: Inhibition of Trypanosoma cruzi cruzain using Cbz-Phe-Arg-AMC as substrate and measured up to 40 mins by fluorescence assay.
For data set [20], the target named is Cruzipain (Trypanosoma cruzi) (UniProt P25779). The experiment in a line: Reversible inhibition of Trypanosoma cruzi cruzain assessed as rate constant K3 using Cbz-Phe-Arg-AMC as substrate preincubated for 1 hr followed by enzyme-compound mixture dilution in presence of substrate by fluorescence assay.
The target of a further data set is Procathepsin L (Homo sapiens, UniProt P07711). As to the kind of experiment: Inhibition of human Cathepsin L assessed as rate constant for enzyme-inhibitor-substrate complex using Cbz-Phe-Arg-AMC as substrate measured up to 40 mins by fluorescence assay.
A further data set addresses Cathepsin S (Homo sapiens, UniProt P25774). As to the kind of experiment: Inhibition of recombinant human Cathepsin S expressed in Escherichia coli assessed as rate constant for enzyme-inhibitor-substrate complex using Cbz-Phe-Arg-AMC as substrate measured up to 40 mins by fluorescence assay.

Cruzipain (Trypanosoma cruzi), sequence (P25779 123-467 limits assumed): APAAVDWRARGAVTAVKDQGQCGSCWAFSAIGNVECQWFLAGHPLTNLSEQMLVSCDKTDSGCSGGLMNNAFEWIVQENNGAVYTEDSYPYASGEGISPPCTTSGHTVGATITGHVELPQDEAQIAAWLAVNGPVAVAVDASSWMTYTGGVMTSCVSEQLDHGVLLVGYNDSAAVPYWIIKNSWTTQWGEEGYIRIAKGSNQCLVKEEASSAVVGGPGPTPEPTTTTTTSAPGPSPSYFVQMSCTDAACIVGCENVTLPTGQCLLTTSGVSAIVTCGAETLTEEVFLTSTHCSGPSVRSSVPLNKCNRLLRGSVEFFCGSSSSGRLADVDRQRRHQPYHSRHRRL
T1 sequence (P25779 whole entry): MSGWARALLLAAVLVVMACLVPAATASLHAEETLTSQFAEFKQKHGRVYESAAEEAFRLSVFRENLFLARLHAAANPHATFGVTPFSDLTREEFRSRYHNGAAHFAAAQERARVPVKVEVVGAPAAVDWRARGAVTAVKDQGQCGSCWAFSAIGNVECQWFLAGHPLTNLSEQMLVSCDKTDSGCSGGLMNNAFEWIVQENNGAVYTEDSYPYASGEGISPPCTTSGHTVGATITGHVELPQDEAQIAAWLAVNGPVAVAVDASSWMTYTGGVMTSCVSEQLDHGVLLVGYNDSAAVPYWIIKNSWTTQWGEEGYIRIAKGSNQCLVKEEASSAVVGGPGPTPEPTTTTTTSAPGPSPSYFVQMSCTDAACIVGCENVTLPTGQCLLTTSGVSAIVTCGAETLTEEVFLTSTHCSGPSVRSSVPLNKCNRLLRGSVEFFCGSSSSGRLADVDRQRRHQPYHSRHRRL
Cathepsin S, sequence (P25774 whole entry): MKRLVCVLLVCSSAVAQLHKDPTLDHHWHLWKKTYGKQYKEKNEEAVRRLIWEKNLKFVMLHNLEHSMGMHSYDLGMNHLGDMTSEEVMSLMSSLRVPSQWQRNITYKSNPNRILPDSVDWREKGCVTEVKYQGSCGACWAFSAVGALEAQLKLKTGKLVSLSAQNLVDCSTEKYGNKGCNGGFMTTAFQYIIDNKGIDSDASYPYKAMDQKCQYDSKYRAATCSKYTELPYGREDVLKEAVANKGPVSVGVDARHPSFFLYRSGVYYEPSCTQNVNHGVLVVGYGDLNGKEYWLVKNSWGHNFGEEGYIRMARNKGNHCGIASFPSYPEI
Procathepsin L, sequence (P07711 whole entry): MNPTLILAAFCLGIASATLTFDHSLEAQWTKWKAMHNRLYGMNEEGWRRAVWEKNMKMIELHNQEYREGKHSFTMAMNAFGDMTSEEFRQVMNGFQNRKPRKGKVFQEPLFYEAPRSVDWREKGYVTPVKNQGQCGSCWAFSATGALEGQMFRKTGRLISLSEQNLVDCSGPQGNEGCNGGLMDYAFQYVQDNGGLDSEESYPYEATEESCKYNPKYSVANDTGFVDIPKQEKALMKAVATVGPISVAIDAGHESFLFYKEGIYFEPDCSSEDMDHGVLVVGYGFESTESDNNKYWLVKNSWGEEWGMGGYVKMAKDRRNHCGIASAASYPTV

The term CC50 denotes the concentration at which the toxic effect on the cells reaches its halfway point. The term EC50 denotes the midpoint of the concentration-response curve. Low readings indicate higher potency in that assay, high ones lower potency in that assay. For the compound `O=C(N[C@@H](Cc1ccccc1)C(=O)N[C@H](/C=C/c1ccccn1)Cc1ccccc1)OCc1ccccc1`, the 50% cytotoxic concentration (CC50) with NHDF is more than 100 µM; in the data set with C2C12 it was more than 10 µM. For the same compound, the solubility entry in data set [1] is given as “<= 30 uM”. For the same compound, the EC50 in the data set on Trypanosoma cruzi [2] is more than 20 µM. The K in data set [3] is 0.0012 s⁻¹.
Consider `C[n+]1ccsc1/C=C/[C@H](Cc1ccccc1)NC(=O)[C@H](Cc1ccccc1)NC(=O)OCc1ccccc1.[I-]`, for which the K in data set [4] came to 15 M⁻¹ s⁻¹. Also, the Retention_time in [5] amounted to 3.61 min. In addition, in data set [6], the Ke was determined as 930 M⁻¹.
Regarding `C[n+]1ccccc1/C=C/[C@H](Cc1ccccc1)NC(=O)[C@H](Cc1ccccc1)NC(=O)OCc1ccccc1.[I-]`, the “Ratio Ki” value in data set [7] was 40; in data set [9], “>= 3”; in [10] it was “>= 3”. For the same compound, the EC50 in the data set with Trypanosoma cruzi [8] was 9.9 µM; in data set [11], 13 µM; in the data set on Trypanosoma cruzi [2], 8.7 µM; in data set [13] it was 6.6 µM. In addition, the K in [4] stood at 37 M⁻¹ s⁻¹. Besides, the CC50 was more than 100 µM in the data set on NHDF and more than 10 µM in the data set with C2C12. Besides, the solubility result in data set [1] is “>= 50 uM”. For the same compound, the selectivity ratio in data set [12] was more than 10. Moreover, in the data set with Trypanosoma cruzi [14], the “Ratio IC50” value was 10. Further, the Ke in data set [6] worked out at 7400 M⁻¹.
As to `O=C(N[C@@H](Cc1ccccc1)C(=O)N[C@H](/C=C/c1ncccn1)CCc1ccccc1)OCc1ccccc1`, at Cruzipain [15], the Ki was more than 35 µM.
As to `O=C(N[C@@H](Cc1ccccc1)C(=O)N[C@H](/C=C/c1ccccn1)CCc1ccccc1)OCc1ccccc1`, the half-maximal effective concentration (EC50) is 5.9 µM in the data set on Trypanosoma cruzi [8], more than 10 µM in data set [11], more than 20 µM in the data set on Trypanosoma cruzi [2] and 4 µM in data set [13]. Besides, the half-maximal cytotoxic concentration (CC50) was more than 100 µM in the data set on NHDF and more than 10 µM with C2C12.
Consider `COc1ccnc(/C=C/[C@H](CCc2ccccc2)NC(=O)[C@H](Cc2ccccc2)NC(=O)OCc2ccccc2)c1`, for which, on Cruzipain [15], the Ki is more than 5 µM.
For the compound `O=C(N[C@@H](Cc1ccccc1)C(=O)N[C@H](/C=C/c1ncco1)Cc1ccccc1)OCc1ccccc1`, the cytotoxic concentration (CC50) in the data set on NHDF is more than 100 µM. Besides, the values for the EC50 (in data set [11]; in the data set with Trypanosoma cruzi [2]) were 27 µM and more than 20 µM, respectively.
As to `NC(=O)/C=C/[C@H](CCc1ccccc1)NC(=O)[C@H](Cc1ccccc1)NC(=O)OCc1ccccc1`, in data set [16], the kinact/Ki turned out to be 1700 M⁻¹ s⁻¹.
With `CN1CCN(C(=O)N[C@@H](Cc2ccccc2)C(=O)N[C@H](/C=C/S(=O)(=O)c2ccccc2)CCc2ccccc2)CC1` [K-777], the concentration giving a half-maximal response (EC50) in the data set on Trypanosoma cruzi [8] is 0.7 µM; in data set [11], 1.7 µM; in the data set on Trypanosoma cruzi [2], more than 20 µM; in the data set with Trypanosoma cruzi [18], 60 µM; in [13] it was 0.09 µM. The CC50 in the data set on NHDF was 60 to 100 µM; with C2C12, more than 10 µM. Further, the K in [17] worked out at 0.00028 s⁻¹. Moreover, the Retention_time in data set [5] was 4.64 min.
Consider `CN1CCN(C(=O)N[C@@H](Cc2ccccc2)C(=O)N[C@H](/C=C/C(N)=O)CCc2ccccc2)CC1`, for which, in data set [16], the kinact/Ki came to 1900 M⁻¹ s⁻¹.
For the compound `O=C(N[C@@H](Cc1ccccc1)C(=O)N[C@H](/C=C/c1ccccc1)Cc1ccccc1)OCc1ccccc1`, in data set [1], the solubility entry is reported as “<= 2 uM”.
Same read-out and setting: with `O=C(N[C@@H](Cc1ccccc1)C(=O)N[C@H](/C=C/c1ccc([N+](=O)[O-])cc1)Cc1ccccc1)OCc1ccccc1` the entry was “<= 2 uM”.
As for `CN1CCN(C(=O)N[C@@H](Cc2ccccc2)C(=O)N[C@H](/C=C/c2ncccn2)CCc2ccccc2)CC1`, the Ki on Cruzipain [15] was more than 10 µM. Besides, the concentration for a half-maximal effect (EC50) in [11] was 15 µM; in the data set on Trypanosoma cruzi [2], 20 µM; in [13] it was more than 20 µM.
For the compound `NC(=O)/C=C/[C@H](Cc1ccccc1)NC(=O)[C@H](Cc1ccccc1)NC(=O)OCc1ccccc1`, the kinact/Ki in data set [16] stood at 21.7 M⁻¹ s⁻¹.
As for `O=C(N[C@@H](Cc1ccccc1)C(=O)N[C@H](/C=C/c1ncccn1)Cc1ccccc1)OCc1ccccc1`, the CC50 in the data set on NHDF was more than 100 µM; in the data set on C2C12, more than 10 µM. Besides, the solubility result in data set [1] was “>= 100 uM”. Further, the K in data set [3] was 0.0018 s⁻¹.
Consider `C[n+]1ccccc1/C=C/[C@H](CCc1ccccc1)NC(=O)[C@H](Cc1ccccc1)NC(=O)OCc1ccccc1`, for which the Ki is 0.76 µM at Cruzipain [15]; 37 µM at Cathepsin B; 2 to 4.3 µM on Cruzipain [19]; 0.88 µM at Procathepsin L; 0.32 µM at Cathepsin S. Further, the “Ratio Ki” value in [7], in [9] and in [10] was more than 10 in each case. Further, the EC50 with Trypanosoma cruzi [8] amounted to 5.4 µM; in [11], 5.9 µM; in the data set on Trypanosoma cruzi [2] it was 2.1 µM; in [13] it was 2.8 µM. The K in data set [4] is 54 M⁻¹ s⁻¹; in data set [20], 0.0012 to 0.004 s⁻¹; in data set [3], 0.00019 s⁻¹. Moreover, the cytotoxic concentration (CC50) was more than 100 µM in the data set on NHDF and more than 10 µM in the data set on C2C12. Besides, the solubility result in [1] is “>= 50 uM”. The Retention_time in [5] turned out to be 4.72 min. Also, the selectivity ratio in [12] is more than 20. For the same compound, in the data set on Trypanosoma cruzi [14], the “Ratio IC50” value worked out at 10. In data set [6], the Ke was 2400 M⁻¹.
